The source of these data is PubChem BioAssay AID1996.

≈ marks a conversion by molar mass, not a printed value. Residues, ends and D or L forms follow the SMILES beside them. *: point of attachment. OBn = c1ccc(CO*)cc1 A value given as a limit tells only on which side of the number the result lay.

A word on the kinetic solubility: it is solubility judged after dilution from a stock solution rather than from solid.

For this series the following is noted: buffer; pH 7.4; 200.0 µM.
`CCCn1c(=O)cc(N)n(-c2ccc(OC(F)(F)F)cc2)c1=O` displayed a kinetic solubility greater than 49.4 µg/mL.

Take `Oc1ccccc1Nc1nc(-c2ccccc2O)nc2ccccc12`: the kinetic solubility was less than 0.2 µg/mL.

Molecule `Cc1cccc(Nc2ccc(C(=O)O)cc2[N+](=O)[O-])c1C` showed a solubility (kinetic) greater than 42.9 µg/mL.

For `CCc1ccc(NC(=O)CCCN2C(=S)NC(C)(C)CC2C)cc1` (stereo unspecified), the kinetic solubility stood at 38.7 µg/mL (≈ 111 µM).

`CCCCCC(=O)NC(=S)Nc1ccc2oc(=O)ccc2c1` gave a kinetic solubility of 1.5 µg/mL (≈ 4.71 µM).

As to `Cc1cccc(C)c1NC(=O)CN(C)CC(=O)N1CC(=O)Nc2ccccc21`, the kinetic solubility is greater than 57.1 µg/mL.

Consider `Cc1cc2[nH]cnc2c([N+](=O)[O-])c1C`, for which the kinetic solubility was greater than 28.7 µg/mL.

For the molecule `CCOC(=O)C1CCN(C(=O)COC(=O)C23CC4CC(CC(C4)C2)C3)CC1`, the kinetic solubility worked out at 50.7 µg/mL (≈ 134 µM).

On to `N#Cc1ccc(CN2CCN(C(=O)C3CC(=O)N(c4ccccc4F)C3)CC2)cc1` (stereo unspecified), for which the kinetic solubility is greater than 61 µg/mL.

On to `CCCCOc1ccc(C(=O)Oc2cccnc2)cc1`, for which the solubility (kinetic) is 1.5 µg/mL (≈ 5.53 µM).

In turn, `COc1cc(OC)cc(C(=O)NC(C(=O)NCCc2ccccn2)C(C)C)c1` (stereo unspecified) gave a kinetic solubility greater than 57.8 µg/mL.

In turn, `CSCCC(NS(=O)(=O)c1ccc(C)cc1C)C(=O)Nc1cccnc1` (stereo unspecified) gave a kinetic solubility greater than 59 µg/mL.

The molecule `c1ccc(N2CCN(Cc3nc4ccccc4[nH]3)CC2)nc1` had a kinetic solubility of 41.3 µg/mL (≈ 141 µM).

Molecule `CCC1(c2ccc(N)cc2)CCC(=O)NC1=O` (stereo unspecified) displayed a kinetic solubility greater than 34.8 µg/mL.

`COc1ccc(C(=O)OCC(=O)c2ccc3c(c2)NC(=O)CO3)cc1[N+](=O)[O-]` registered a solubility (kinetic) of 2.7 µg/mL (≈ 6.99 µM).

Molecule `O=C1CCc2cc(S(=O)(=O)Nc3ccccc3Cl)ccc2N1` showed a kinetic solubility greater than 50.5 µg/mL.

For the molecule `CCCC(C)C(=O)Nc1ccc(S(=O)(=O)N2CCCC2)cc1` (stereo unspecified), the kinetic solubility was greater than 48.7 µg/mL.

Molecule `O=C(NCc1ccco1)c1cc([N+](=O)[O-])ccc1Cl` registered a solubility (kinetic) of 28.3 µg/mL (≈ 101 µM).

As to `CC(=O)N1CCN(C(=O)c2ccc(Oc3ccccc3)cc2)CC1`, the solubility (kinetic) stood at 46.6 µg/mL (≈ 144 µM).

Molecule `Cc1ccc(S(=O)(=O)n2c(N)nc3ccccc32)cc1` had a kinetic solubility of 2.7 µg/mL (≈ 9.4 µM).

The molecule `Cc1ccc(OCC(=O)O/N=C(\N)Cc2ccc([N+](=O)[O-])cc2)cc1C` registered a solubility (kinetic) of 9.4 µg/mL (≈ 26.3 µM).

For the molecule `Cc1ccc(C)c(OCCN2CCOCC2)c1`, the solubility (kinetic) turned out to be 24.9 µg/mL (≈ 106 µM).

Turning to `O=S(=O)(NC1CCN(Cc2ccccc2)CC1)c1ccc(Cl)cc1`, the solubility (kinetic) was greater than 54.7 µg/mL.

`Cc1ccc(C(CC(=O)O)NC(=O)CCNC(=O)c2ccco2)cc1` (stereo unspecified) yielded a solubility (kinetic) greater than 51.7 µg/mL.

For `O=C(CCCSc1ccc(Cl)cc1)Nc1ccccc1O`, the solubility (kinetic) amounted to 8.6 µg/mL (≈ 26.7 µM).

Turning to `CC1CC(C)CN(C(=O)c2ccc(S(=O)(=O)N3CCCCC3)cc2)C1` (stereo unspecified), the kinetic solubility amounted to 5.1 µg/mL (≈ 14 µM).

As to `Cc1ccccc1OCCCN1CCOCC1`, the solubility (kinetic) stood at 31.3 µg/mL (≈ 133 µM).

Molecule `CCC(C)[C@H](NC(=O)NCCC1=CCCCC1)C(=O)O` (stereo partly specified) displayed a kinetic solubility of 38.2 µg/mL (≈ 135 µM).

`O=C1CN(C(=O)COC(=O)CCC(=O)c2ccc(F)cc2)c2ccccc2N1` had a solubility (kinetic) of 31.6 µg/mL (≈ 82.2 µM).

With `Cc1ccc(NC(=O)Cn2c(=O)oc3ccccc32)cc1Cl`, the kinetic solubility was determined as 0.9 µg/mL (≈ 2.84 µM).

With `CN1CCN(C(=O)/C=C/c2ccc(C#N)cc2)CC1`, the kinetic solubility was greater than 38.3 µg/mL.

For the molecule `Cc1ccc(Cl)cc1NC(=O)CC1NC2CCCCC2NC1=O` (stereo unspecified), the solubility (kinetic) was found to be 38.6 µg/mL (≈ 115 µM).

Molecule `CC(=O)Nc1cccc(-c2nc3ccccc3[nH]2)c1` showed a kinetic solubility greater than 37.7 µg/mL.

The molecule `OC(c1ccccc1)(c1ccccc1)C1CCNCC1` displayed a solubility (kinetic) greater than 40.1 µg/mL.

`Cc1c(O)c2ccccc2n(-c2ccccc2)c1=O` had a kinetic solubility greater than 37.7 µg/mL.

`Nc1nc(COC(=O)c2ccc3c(c2)OCCO3)nc(Nc2ccccc2)n1` had a kinetic solubility of 3.9 µg/mL (≈ 10.3 µM).

As for `CCOC(=O)c1c(NC(=O)c2ccncc2)sc(C)c1C`, the kinetic solubility worked out at 5 µg/mL (≈ 16.4 µM).

With `O=C(CCN1C(=O)C2C3CCC(C3)C2C1=O)OCC(=O)c1ccccc1` (stereo unspecified), the solubility (kinetic) amounted to 52.9 µg/mL (≈ 149 µM).

For `CC(=O)NCCc1nc2cc(NS(=O)(=O)c3ccccc3)ccc2n1C`, the kinetic solubility is greater than 55.9 µg/mL.

`CCCSCCCNC(=O)Cn1c(=O)c2cccn2c2ccccc21`: the solubility (kinetic) amounted to 7.7 µg/mL (≈ 21.5 µM).

On to `OC1CCN(Cc2cccc3ccccc23)CC1`, for which the kinetic solubility stood at 29.3 µg/mL (≈ 121 µM).

With `COc1ccc(OC)c(CC(=O)Nc2ccc3c(c2)CCC3)c1`, the solubility (kinetic) is 4.1 µg/mL (≈ 13.2 µM).

In the case of `Cc1ccc(CN2CCS(=O)(=O)CC2)o1`, the solubility (kinetic) is greater than 34.4 µg/mL.

Molecule `O=C(CSc1nc2ncccc2[nH]1)NCc1ccco1` had a kinetic solubility greater than 43.2 µg/mL.

Molecule `CC(=O)NCC(=O)N[C@@H](CC(=O)OCc1ccccc1)C(=O)OCc1ccccc1` (Ac-Gly-Asp(OBn)-OBn) came in with a solubility (kinetic) greater than 61.9 µg/mL.

In turn, `CCOc1ccc(S(=O)(=O)Nc2nccs2)cc1` returned a kinetic solubility greater than 42.7 µg/mL.

Take `Cc1ccc2oc(C(=O)NCC(c3ccco3)N(C)C)c(C)c2c1` (stereo unspecified): the solubility (kinetic) was greater than 49 µg/mL.

Consider `O=C(CCc1c[nH]c2ccccc12)NCCc1ccc(Cl)cc1`, for which the kinetic solubility was 4.2 µg/mL (≈ 12.9 µM).

As for `CC(c1ccccc1)n1c(S(=O)(=O)O)nc2ccccc21` (stereo unspecified), the solubility (kinetic) stood at 43.7 µg/mL (≈ 145 µM).

Turning to `O=C(Nc1nccs1)c1ccc(COc2ccccc2)o1`, the kinetic solubility is less than 0.3 µg/mL.

Molecule `Nc1c(NCCc2ccccc2)c2ccccc2oc1=O` showed a solubility (kinetic) greater than 42 µg/mL.
